Source: patent US20240252508A1, “Novel glucose uptake inhibitors for use in the treatment of cancer” (NOVELYEAST BV, priority 2021, published 2024)

Assays:
[1] = test system: A549 lung adenocarcinoma cells; experiment: A549 cell proliferation / growth inhibition; type: cell-based, human; conditions: for Selected from primary screen for growth inhibition of A549 cells at 50 μM: 50 μM compound, 1 mM glucose; for Selected for having an IC50 ratio (10 mM glucose: 1 mM glucose) of A549 growth higher than WBC-A: IC50 on 10 mM vs 1 mM glucose, compared with WBC-A
Procedure, shortened: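 A549 growth screened in RPMI with 1 mM glucose, compounds at 50 μM; cell number from counts of Hoechst-stained nuclei after 3 days. Growth curves also followed by IncuCyte phase-contrast confluency over 3–5 days (1000–1500 cells/well), DMSO ≤0.1%, ≥4 technical repeats.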

tps1Δ cells = experiment: Growth rescue of tps1Δ strain on glucose (growth curves, 2% galactose medium); type: cell-based, S. cerevisiae; conditions: 100 μM compound, 2.5 mM glucose
Procedure, shortened: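 tps1Δ yeast pregrown in Complete Synthetic medium with 2% galactose, washed, resuspended to OD 0.1; compounds added 10 min before glucose. Growth followed as OD595 every 30 min at 30 °C in at least three technical replicates.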

| SMILES | Selected from primary screen for growth inhibition of A549 cells at 50 μM [1] | Rescue of the tps1Δ strain on 2.5 mM glucose at 100 μM (tps1Δ cells) | Selected for having an IC50 ratio (10 mM glucose: 1 mM glucose) of A549 growth higher than WBC-A [1] |
| --- | --- | --- | --- |
| OCCSc1ncnc2sc3c(c12)CCC3 [17C] | No | No |  |
| Cc1nc(SCC(=O)NC(C)(C)C)c2c(-c3cccs3)csc2n1 [32B] | Yes | Yes | Lower IC50 ratio |
| Cc1nc(NCC(=O)N2CCCC2)c2c(-c3cccs3)csc2n1 [24B] | Yes | No | Lower IC50 ratio |
| Cc1nc(Sc2nnc(NC3CC3)s2)c2c(-c3cccs3)csc2n1 [66C] | No | No |  |
| c1ccc(-c2csc3ncnc(Sc4nnc5ccccn45)c23)cc1 [49A] | Yes | No | Lower IC50 ratio |
| CCn1c(CN)nnc1Sc1nc(-c2ccccc2)nc2scc(-c3ccccc3)c12 [37A] | No | No |  |
| CCc1nc(Sc2nnc(CO)n2C)c2ccsc2n1 [41A] | Yes | No | Lower IC50 ratio |
| CCC(c1nnc(Sc2nc(C)nc3scc(-c4cccs4)c23)n1Cc1ccccc1)N(C)C (centres unmarked) [52A] | Yes | No | Lower IC50 ratio |
| CCCN(CC(=O)N(C)C)c1nc(C)nc2scc(-c3cccs3)c12 [46B] | Yes | No | Lower IC50 ratio |
| Cc1nc(NCCN2CCOCC2)c2c(-c3ccccc3)csc2n1 [85C] | Yes | No | Higher IC50 ratio, but false-positive |
| CCCn1c(Sc2nc(C)nc3scc(-c4cccs4)c23)nnc1-c1ccncc1 [34C] | Yes | No | Lower IC50 ratio |
| NC(=O)CSc1ncnc2scc(-c3ccccc3)c12 [82C] | No | No |  |
| Cc1nc(SCC(N)=O)c2c(C)c(C)sc2n1 [61C] | No | No |  |
| Cc1nc(Sc2nnc(C(F)(F)F)n2C)c2c(-c3cccs3)csc2n1 [54C] | Yes | Yes | Lower IC50 ratio |
| CCCNC(=O)CN1CCC(Nc2nc(C)nc3scc(-c4cccs4)c23)CC1 [30B] | No | No |  |
| Cc1nc(SCC(=O)N2CCOCC2)c2c3c(sc2n1)CCCC3 [52C] | No | No |  |
